The source of these data is patent US5342851A, “Substituted thiazole derivatives useful as platelet aggregation inhibitors” (McNeil-PPC, Inc., priority 1992, dated 1994).

Where a name gives a salt, the structure may show the parent alone. Read-outs that look alike come from different tables or passages of the source.

For assay [1], the system named is activated platelets (125I-fibrinogen binding). Briefly: Fibrinogen Binding (125I-fibrinogen binding to activated platelets). To be noted: read-out: Binding (IC50, concentration of compound which provides 50% fibrinogen binding); thrombin-stimulated platelets; 0.15 μM 125I-fibrinogen. As for the experimental part:
The compounds of the invention as identified above are evaluated for platelet aggregation inhibition activity as indicated by the percentage of nonaggregated platelets which are available for binding in accordance with the following procedure.
Briefly, 40 mL of PRP (obtained from Biological Specialty Corp., Lansdale, Pa.) are centrifuged at 120×g to remove contaminating red cells. Aspirin (50 μM) is added and the PRP is incubated at 37° C. for 20 minutes. […] Platelets are concentrated by a 300×g centrifugation (10 minutes) and the pellet is resuspended in 4 mL. of Tyrode's buffer. The platelet suspension (4 mL) is gel-filtered through a Sepharose-2B column (50 mL bed volume). […] The binding reaction is performed in polystyrene tubes (final volume […]). Reagents are added in the following order: 80 mL of Tyrode's buffer, 50 mL of CaCl2 (final concentration (f.c.) […]) and 50 mL of thrombin (f.c. 0.1 unit/mL). The platelet suspension is then added and the mixture is allowed to incubate at room temperature for 2 minutes. Hirudin (50 mL, f.c. 0.5 unit/mL) is immediately added to prevent the catalytic activity of thrombin. […] The mixture is incubated for 10 minutes at room temperature. To terminate the binding reaction the platelets are sedimented (10,000×g for 3 minutes) through silicone oil (3:1 hi-phenol 550/methyl silicone 200, W. F. Nye, Inc., New Bedford, Mass.), in an Eppendorf centrifuge.
The amount of platelet radioactivity measured in the presence of nonlabeled fibrinogen (4 mg/mL) is considered the nonspecific binding. All samples are repeated in triplicate.
Positive percentages of fibrinogen binding indicates higher activity for inhibiting platelet aggregation since only non-aggregated or free platelets are available for fibrinogen binding.

Assay [2] concerns platelets (gel-filtered platelet rich plasma). As to the kind of experiment: Platelet Aggregation Inhibition Activity (agonist thrombin or ADP, light transmission). The assay is classed as cell-based. To be noted: for inhibition at 20 µM: Homo sapiens, thrombin or ADP agonist, read-out: Aggregation (percentage increase in light transmission).
Description: The percentage of platelet aggregation is calculated as an increase in light transmission of drug treated platelet concentrate versus control treated platelet concentrate. Blood is obtained from drug free, normal donors into tubes containing 0.13M sodium citrate (two sources are routinely used: platelet concentrate obtained from Biological Specialty Corp., Lansdale, Pa. or whole blood obtained from donors). Platelet rich plasma (PRP) is collected by centrifugation of the concentrate or whole blood at 130×g for 15 minutes at 25° C. The PRP (5 mL) is gel filtered through Sepharose 2B (bed volume 50 mL), and the platelet count is adjusted to 2×10^7 platelets per sample. The following constituents are added to a siliconized cuvette: 250 μL of the concentrated platelet filtrate, 100 μL of Tyrode's buffer (0.14M NaCl, 0.0027M KCl, 0.012M NaHCO3, 0.76 mM Na2 HPO4, 0.0055M glucose and 2 mg/mL BSA pH 7.4), 50 μL of 2 mM calcium and test drug (50 mL).
Aggregation is monitored in a dual channel Chrono-log Aggregometer for three minutes following the addition of agonist (thrombin 50 μL of 1 unit/mL, or ADP 50 μL of 100 μM). The final assay volume is 500 μL. The reaction takes place at 37° C. The peak aggregation response is calculated as the increase in light transmission units over a three minute period. The difference of the increase in light transmission between control and drug treated platelets is then expressed as a percent of the nondrug treated controls. […] A percentage increase in light transmission indicates platelet aggregation inhibition activity for the tested compound.
Setting [3] is: read-out: Aggregation (IC50, concentration at which the increase in light transmission equals 50%), thrombin or ADP agonist, 37° C., three minutes.

Take `O=C(NCCCNC1CCCCC1)c1cnn(-c2nc(-c3ccc(C(F)(F)F)cc3)cs2)c1C(F)(F)F` [Example 105]: the IC50 is 44 µM in assay [1] and 8 µM in assay [2] (setting [3]).
For the compound `CCCCN(CCCC)CCCNC(=O)c1cnn(-c2nc(-c3ccc(C)cc3)cs2)c1C(F)(F)F` [Example 45], the IC50 in assay [1] is 8.5 µM; in assay [2] (setting [3]) it was 45 µM.
The matching figures for `CCN(CC)CCCNC(=O)c1ccc(-c2csc(-c3ccc(C(C)(C)C)cc3)n2)cc1` [Example 153]: 4.3 µM and 15.3 µM.
Turning to `O=C(NCCCBr)c1ccc(-c2csc(-c3ccc(C(F)(F)F)cc3)n2)cc1` [Example 209], the figures for the IC50 in assay [1] and in assay [2] (setting [3]) were 7.8 µM and 5.5 µM, respectively.
In the case of `CCN(CC)CCCNC(=O)c1cnn(-c2nc(-c3cccc(C(F)(F)F)c3)c(Br)s2)c1C(F)(F)F` [Example 46], the IC50 in assay [1] was found to be 11.3 µM; in assay [2] (setting [3]), 2.7 µM.
Regarding `CCN(CC)CCCNC(=O)c1cnn(-c2nc(-c3ccccc3)cs2)c1C(F)(F)F` [Example 50], the IC50 in assay [1] was 50 µM; in assay [2] (setting [3]), 30 µM.
Regarding `Cc1c(C(=O)NCCCN2CCCCC2)cnn1-c1nc(-c2cccc(C(F)(F)F)c2)cs1` [Example 91], the IC50 worked out at 10 µM in assay [1] and 5 µM in assay [2] (setting [3]).
Regarding `O=C(NCCCNC1CCCCC1)c1cnn(-c2nc(-c3cccc(C(F)(F)F)c3)cs2)c1C(F)(F)F` [Example 102], the IC50 in assay [1] is 25 µM; in assay [2] (setting [3]), 6 µM.
For the compound `CCN(CC)CCCNC(=O)c1cnn(-c2nc(-c3ccc(C)cc3)cs2)c1C(F)(F)F` [Example 43], the IC50 in assay [1] came out at 70 µM; in assay [2] (setting [3]), 6 µM.
`Cc1ccc(-c2nc(-c3ccc(C(=O)NCCCN(C)C)cc3)cs2)cc1` [Example 154]: the IC50 in assay [1] came out at 10 µM; in assay [2] (setting [3]), 7.2 µM.
The matching figures for `CCN(CC)CCCNC(=O)c1cnn(-c2nc(-c3cccc(C(F)(F)F)c3)cs2)c1C(F)(F)F` [Example 37]: 4 µM and 15 µM.
The matching figures for `CCCCNCCCNC(=O)c1ccc(-c2csc(-c3ccc(OC)cc3)n2)cc1` [Example 226]: 4.3 µM and 3.8 µM.
With `CN(C)CCNC(=O)c1ccc(-c2csc(-c3ccc(C(F)(F)F)cc3)n2)cc1` [Example 174], the IC50 in assay [1] was determined as 1.8 µM. The inhibition at 20 µM in assay [2] is 85%.
`CCN(CC)CCCNC(=O)c1ccc(-c2csc(-c3ccc(C(F)(F)F)cc3)n2)cc1` [Example 150]: the IC50 stood at 4.4 µM in assay [1] and 5 µM in assay [2] (setting [3]).
Regarding `Cc1ccc(-c2nc(-c3ccc(C(=O)NCCCN4CCCC4=O)cc3)cs2)cc1` [Example 170], the IC50 in assay [1] stood at 10.8 µM. Also, the inhibition at 20 µM in assay [2] was found to be 90%.
Consider `CCN(CC)CCNC(=O)c1ccc(-c2csc(-c3ccc(C)cc3)n2)cc1` [Example 176], for which the IC50 in assay [1] was 2.5 µM; in assay [2] (setting [3]), 4 µM.
The matching figures for `NCCCNC(=O)c1cnn(-c2nc(-c3cccc(C(F)(F)F)c3)cs2)c1C(F)(F)F` [Example 121, 2-[4-(3-Aminopropylcarbamoyl)-5-(trifluoromethyl)pyrazol-1-yl]-4-(3-trifluoromethylphenyl)thiazole Monohydrochloride]: 15 µM and 6 µM.
Consider `CN1CCN(CCCNC(=O)c2cnn(-c3nc(-c4cccc(C(F)(F)F)c4)cs3)c2-c2ccccc2)CC1` [Example 120], for which the IC50 in assay [1] was 23 µM; in assay [2] (setting [3]), 13 µM.
In the case of `N=C(N)NCCCNC(=O)c1cnn(-c2nc(-c3cccc(C(F)(F)F)c3)cs2)c1C(F)(F)F` [Example 128, 2-[4-(3-Guanidinopropylcarbamoyl)-5-(trifluoromethyl)-pyrazol-1-yl]-4-(3-trifluoromethylphenyl)thiazole Nitrate], the IC50 in assay [1] was found to be 17.5 µM; in assay [2] (read-out: Aggregation (IC50, concentration at which the increase in light transmission equals 50%)) it was 118 µM.
On to `NCCCNC(=O)c1cnn(-c2nc(-c3cccc(C(F)(F)F)c3)c(Br)s2)c1C(F)(F)F` [Example 124], for which the IC50 in assay [1] amounted to 5.5 µM; in assay [2] (setting [3]), 3.2 µM.
The like results for `CCN(CC)CCCNC(=O)c1ccc(-c2csc(-c3ccc(C)cc3)n2)cc1` [Example 151] were, in that order, 19 µM and 16.7 µM.
The like results for `CCN(CC)CCCNC(=O)c1cnn(-c2nc(-c3cccc(OC)c3)cs2)c1C(F)(F)F` [Example 40] were, in that order, 65 µM and 30 µM.
As to `CN(C)CCCNC(=O)c1cnn(-c2nc(-c3cccc(C(F)(F)F)c3)cs2)c1C(F)(F)F` [Example 39], the IC50 in assay [1] was 16 µM; in assay [2] (setting [3]), 30 µM.
As to `CCCCN(CCCC)CCCNC(=O)c1cnn(-c2nc(-c3cccc(C(F)(F)F)c3)cs2)c1C(F)(F)F` [Example 38], the IC50 in assay [1] is 75 µM; in assay [2] (setting [3]) it was 56 µM.
The like results for `CCN(CC)CCCCNC(=O)c1ccc(-c2csc(-c3ccc(Cl)cc3)n2)cc1` [Example 179] were, in that order, 2.7 µM and 5.8 µM.
For `NCCCNC(=O)c1cnn(-c2nc(-c3cccc(Cl)c3)cs2)c1C(F)(F)F` [Example 122], the IC50 in assay [1] stood at 10 µM; in assay [2] (setting [3]) it was 14.7 µM.
The like results for `CCCNCCCNC(=O)c1cnn(-c2nc(-c3cccc(C(F)(F)F)c3)cs2)c1C(F)(F)F` [Example 114] were, in that order, 10 µM and 7 µM.
The matching figures for `O=C(NCCCN1CCCCC1)c1ccc(-c2csc(-c3ccc(Cl)cc3)n2)cc1` [Example 211]: 3.4 µM and 5 µM.
Take `O=C(NCCN1CCCCC1)c1ccc(-c2csc(-c3ccccc3)n2)cc1` [Example 158]: the results for the IC50 in assay [1] and in assay [2] (setting [3]) were 5.2 µM and 8.7 µM, respectively.
Take `FC(F)(F)c1cccc(-c2csc(-n3ncc(COCCCN4CCCCC4)c3C(F)(F)F)n2)c1` [Example 136, 2-[4-[3-(N-Piperidino)propoxymethyl]-5-(trifluoromethyl)pyrazol-1-yl]-4-(3-trifluoromethylphenyl)thiazole Oxalate]: the IC50 in assay [1] was found to be 17 µM; in assay [2] (setting [3]), 21 µM.
Turning to `CCCNCCCNC(=O)c1ccc(-c2csc(-c3ccc(C(F)(F)F)cc3)n2)cc1` [Example 221], the IC50 in assay [1] came to 5.8 µM. Besides, in assay [2], the inhibition at 20 µM is 85%.
As for `NCCNC(=O)c1ccc(-c2csc(-c3ccc(C(F)(F)F)cc3)n2)cc1` [Example 196], the IC50 came to 6 µM in assay [1] and 3.7 µM in assay [2] (setting [3]).
